From patent publication US9512120B2, “Microbicidally active imidazopyridine derivatives” (Syngenta Participations AG, priority 2013, dated 2016)
One block for each molecule: values may come before it.

Columns and labels:
[1] = system: Glomerella lagenarium (Colletotrichum lagenarium); assay: Glomerella lagenarium (Colletotrichum lagenarium) / liquid culture (anthracnose); assay type: cell-based; conditions: Colletotrichum orbiculare, PDB, 24° C., 3-4 days after application, read-out: control of Glomerella lagenarium (inhibition of growth, photometric)
Summary of the method: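 Test compound, delivered in DMSO at an application rate of 200 ppm, was combined with spore-containing PDB. Photometric growth-inhibition measurement followed 3-4 days of incubation at 24° C.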

Gaeumannomyces graminis = Gaeumannomyces graminis / liquid culture (take-all of cereals); assay type: cell-based; conditions: PDB, 24° C., 4-5 days after application, read-out: control of Gaeumannomyces graminis (inhibition of growth, photometric)
Summary of the method: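 Growth inhibition, measured by photometry 4-5 days post-application at 24 °C, of fungal mycelial fragments in PDB broth. Test compound applied as DMSO solution at 200 ppm.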

Pyrenophora teres = Pyrenophora teres / barley / leaf disc preventative (net blotch); assay type: in vivo; conditions: foliar, barley leaf segments cv Hasso, inoculated two days after application, assessed 5-7 days after application, read-out: control of Pyrenophora teres (disease control compared to untreated)
Summary of the method: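 Preventative leaf-disc test: 200 ppm spray, then spore inoculation after two days on barley cv Hasso segments. Incubation 20 °C, 65% relative humidity, 12 h light/12 h dark; efficacy rated against untreated checks at 5-7 days post-application.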

[2] = system: Mycosphaerella graminicola (Septoria tritici); assay: Mycosphaerella graminicola (Septoria tritici) / liquid culture (Septoria blotch); assay type: cell-based; conditions: Zymoseptoria tritici, PDB, 24° C., 4-5 days after application, read-out: control of Mycosphaerella graminicola (inhibition of growth, photometric)
Summary of the method: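 Growth inhibition was read photometrically after 4–5 days at 24 °C. The test compound was applied at 200 ppm from DMSO solution, then PDB broth seeded with conidia taken straight from cryogenic storage was added.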

[3] = system: Puccinia recondita f. sp. Tritici; assay: Puccinia recondita f. sp. tritici / wheat / leaf disc preventative (brown rust); assay type: in vivo; conditions: foliar, wheat leaf segments cv Kanzler, inoculated 1 day after application, assessed 7-9 days after application, read-out: control of Puccinia recondita f. sp. Tritici (percent disease control compared to untreated)
Summary of the method: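 Preventative test: percent disease control relative to untreated leaf segments was assessed 7-9 days post-application. Wheat (cv Kanzler) leaf discs were treated at 200 ppm and spore-inoculated 1 day afterwards. Discs were held at 19° C and 75% relative humidity under a 12/12 h light cycle.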

[4] = system: Monographella nivalis (Microdochium nivale); assay: Monographella nivalis (Microdochium nivale) / liquid culture (foot rot cereals); assay type: cell-based; conditions: PDB, 24° C., 4-5 days after application, read-out: control of Monographella nivalis (inhibition of growth, photometric)
Summary of the method: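 Cryostored conidia in potato dextrose broth were added to test compound dispensed from DMSO at 200 ppm. Plates were kept at 24° C, and growth inhibition was read photometrically 4-5 days after application.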

[5] = system: Botryotinia fuckeliana (Botrytis cinerea); assay: Botryotinia fuckeliana (Botrytis cinerea) / liquid culture (gray mould); assay type: cell-based; conditions: Vogels broth, 24° C., 3-4 days after application, read-out: control of Botryotinia fuckeliana (inhibition of growth, photometric)
Summary of the method: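 Test compound was applied at 200 ppm in DMSO, then Vogels nutrient broth containing cryo-stored B. cinerea conidia was added. Photometric growth-inhibition reading followed after 3-4 days at 24 °C.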

[6] = system: Thanatephorus cucumeris (Rhizoctonia solani); assay: Thanatephorus cucumeris (Rhizoctonia solani) / liquid culture (foot rot, damping-off); assay type: cell-based; conditions: PDB, 24° C., 3-4 days after application, read-out: control of Thanatephorus cucumeris (inhibition of growth, photometric)
Summary of the method: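 At 200 ppm, compounds in DMSO were combined with fresh liquid-culture mycelia in PDB and kept at 24° C; photometric measurement of growth inhibition after 3-4 days.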

Plasmopara viticola = Plasmopara viticola / grape / leaf disc preventative; assay type: in vivo; conditions: foliar, grape vine leaf disks, inoculated 1 day after application, assessed 6-8 days after application, read-out: control of Plasmopara viticola (percent disease control compared to untreated)
[7] = system: Phaeosphaeria nodorum (Septoria nodorum); assay: Phaeosphaeria nodorum (Septoria nodorum) / wheat / leaf disc preventative (glume blotch); assay type: in vivo; conditions: Parastagonospora nodorum, foliar, wheat leaf segments cv Kanzler, inoculated 2 days after application, assessed 5-7 days after application, read-out: control of Phaeosphaeria nodorum (percent disease control compared to untreated)
Description: Phaeosphaeria nodorum (Septoria nodorum)/Wheat/Leaf Disc Preventative (Glume Blotch): Wheat leaf segments cv Kanzler were placed on agar in a 24-well plate and sprayed with formulated test compound diluted in water at an application rate of 200 ppm. The leaf disks are inoculated with a spore suspension of the fungus 2 days after application. The inoculated test leaf disks are incubated at 20° C. and 75% relative humidity under a light regime of 12/12 h (light/dark) in a climate cabinet and the activity of a compound is assessed as percent disease control compared to untreated when an appropriate level of disease damage appears in untreated check leaf disks (5-7 days after application).

[8] = system: Mycosphaerella arachidis (Cercospora arachidicola); assay: Mycosphaerella arachidis (Cercospora arachidicola) / liquid culture (early leaf spot); assay type: cell-based; conditions: PDB, 24° C., 4-5 days after application, read-out: control of Mycosphaerella arachidis (inhibition of growth, photometric)
Description: Mycosphaerella Arachidis (Cercospora arachidicola)/Liquid Culture (Early Leaf Spot): Conidia of the fungus from cryogenic storage were directly mixed into nutrient broth (PDB potato dextrose broth). After placing a DMSO solution of test compound into a 96-well microtiter plate at an application rate of 200 ppm, the nutrient broth containing the fungal spores was added. The test plates are incubated at 24° C. and the inhibition of growth was determined photometrically 4-5 days after application.

Sclerotinia sclerotiorum = Sclerotinia sclerotiorum liquid culture (cottony rot / white mold); assay type: cell-based; conditions: PDB, 24° C., 3-4 days after application, read-out: control of Sclerotinia sclerotiorum (inhibition of growth, photometric)
Description: Sclerotinia sclerotiorum (Cottony Rot/White Mold): Mycelia fragments of a newly grown liquid culture of the fungus were directly mixed into nutrient broth (PDB potato dextrose broth). After placing a (DMSO) solution of test compound into a microtiter plate (96-well format) the nutrient broth containing the fungal material was added. The test plates are incubated at 24° C. and the inhibition of growth was determined photometrically 3-4 days after application.

SMILES: CCn1c(-n2ncnc2N)nc2cncc(-c3cccc4ccccc34)c21 [Compound 40, 2-(1-ethyl-7-naphthalen-1-ylimidazo[4,5-c]pyridin-2-yl)-1,2,4-triazol-3-amine]
pest or weed control at 200 ppm (Pyrenophora teres): ≥ 80% | inhibition at 20 ppm [2]: ≥ 80% | pest or weed control at 200 ppm (Plasmopara viticola): ≥ 80% | inhibition at 20 ppm [6]: ≥ 80%

SMILES: CCCn1c(-n2ncnc2N)nc2cncc(-c3ccc(Cl)cc3Cl)c21 [Compound 118, 2-[7-(2,4-dichlorophenyl)-1-propylimidazo[4,5-c]pyridin-2-yl]-1,2,4-triazol-3-amine]
pest or weed control at 200 ppm [7]: ≥ 80% | inhibition at 20 ppm (Gaeumannomyces graminis): ≥ 80% | pest or weed control at 200 ppm (Pyrenophora teres): ≥ 80% | inhibition at 20 ppm [2]: ≥ 80% | inhibition at 20 ppm [1]: ≥ 80% | pest or weed control at 200 ppm (Plasmopara viticola): ≥ 80% | inhibition at 20 ppm [4]: ≥ 80% | inhibition at 20 ppm [5]: ≥ 80% | inhibition at 20 ppm [6]: ≥ 80%

SMILES: CCn1c(-n2ncnc2N)nc2cncc(C(C)=NOCc3ccccc3Cl)c21 [Compound 144]
pest or weed control at 200 ppm [7]: ≥ 80% | pest or weed control at 200 ppm (Pyrenophora teres): ≥ 80% | inhibition at 20 ppm [2]: ≥ 80% | inhibition at 20 ppm (Sclerotinia sclerotiorum): ≥ 80% | pest or weed control at 200 ppm [3]: ≥ 80% | inhibition at 20 ppm [1]: ≥ 80% | pest or weed control at 200 ppm (Plasmopara viticola): ≥ 80% | inhibition at 20 ppm [4]: ≥ 80% | inhibition at 20 ppm [5]: ≥ 80% | inhibition at 20 ppm [6]: ≥ 80%

SMILES: CCn1c(-n2ncnc2N)nc2cncc(C(C)=NOCc3ccccc3OC)c21 [Compound 146]
pest or weed control at 200 ppm (Pyrenophora teres): ≥ 80% | inhibition at 20 ppm [2]: ≥ 80% | pest or weed control at 200 ppm [3]: ≥ 80% | inhibition at 20 ppm [1]: ≥ 80% | pest or weed control at 200 ppm (Plasmopara viticola): ≥ 80% | inhibition at 20 ppm [5]: ≥ 80% | inhibition at 20 ppm [6]: ≥ 80%

SMILES: CCn1c(-n2ncnc2N)nc2cncc(/C(C)=N\OCC=C(C)C)c21 [Compound 156]
pest or weed control at 200 ppm [7]: ≥ 80% | pest or weed control at 200 ppm (Pyrenophora teres): ≥ 80% | inhibition at 20 ppm [2]: ≥ 80% | inhibition at 20 ppm (Sclerotinia sclerotiorum): ≥ 80% | pest or weed control at 200 ppm [3]: ≥ 80% | inhibition at 20 ppm [1]: ≥ 80% | pest or weed control at 200 ppm (Plasmopara viticola): ≥ 80% | inhibition at 20 ppm [4]: ≥ 80% | inhibition at 20 ppm [5]: ≥ 80% | inhibition at 20 ppm [6]: ≥ 80%

SMILES: CCn1c(-n2ncnc2N)nc2cncc(C(C)=NOCc3c(Cl)cccc3Cl)c21 [Compound 160]
pest or weed control at 200 ppm (Pyrenophora teres): ≥ 80% | inhibition at 20 ppm [2]: ≥ 80% | pest or weed control at 200 ppm [3]: ≥ 80% | pest or weed control at 200 ppm (Plasmopara viticola): ≥ 80% | inhibition at 20 ppm [6]: ≥ 80%

SMILES: CCn1c(-n2ncnc2N)nc2cncc(/C(C)=N\OC(C)C)c21 [Compound 166]
pest or weed control at 200 ppm (Pyrenophora teres): ≥ 80% | inhibition at 20 ppm [2]: ≥ 80% | pest or weed control at 200 ppm [3]: ≥ 80% | inhibition at 20 ppm [1]: ≥ 80% | pest or weed control at 200 ppm (Plasmopara viticola): ≥ 80% | inhibition at 20 ppm [5]: ≥ 80% | inhibition at 20 ppm [6]: ≥ 80%

SMILES: CCn1c(-n2ncnc2N)nc2cncc(C(C)=NOCC(F)(F)F)c21 [Compound 169]
pest or weed control at 200 ppm (Pyrenophora teres): ≥ 80% | inhibition at 20 ppm [2]: ≥ 80% | pest or weed control at 200 ppm [3]: ≥ 80% | inhibition at 20 ppm [1]: ≥ 80% | pest or weed control at 200 ppm (Plasmopara viticola): ≥ 80% | inhibition at 20 ppm [5]: ≥ 80% | inhibition at 20 ppm [6]: ≥ 80%

More lines, main results first:

melting point: 196 to 199 °C
SMILES: Nc1nc(C2CC2)nn1-c1nc2cnccc2n1C1CCCCC1 [Compound 8, 2-(1-cyclohexylimidazo[4,5-c]pyridin-2-yl)-5-cyclopropyl-1,2,4-triazol-3-amine]
inhibition at 20 ppm [1]: ≥ 80%

melting point: 217 to 221 °C
SMILES: Nc1nc(Br)nn1-c1nc2cnccc2n1C1CCCCC1 [Compound 20, 5-bromo-2-(1-cyclohexylimidazo[4,5-c]pyridin-2-yl)-1,2,4-triazol-3-amine]
inhibition at 20 ppm [1]: ≥ 80%

melting point: 205 to 208 °C
SMILES: CCn1c(-n2ncnc2N)nc2cncc(CCc3ccccc3)c21 [Compound 24, 2-[1-ethyl-7-(2-phenylethyl)imidazo[4,5-c]pyridin-2-yl]-1,2,4-triazol-3-amine]
inhibition at 20 ppm (Gaeumannomyces graminis): ≥ 80% | pest or weed control at 200 ppm (Pyrenophora teres): ≥ 80% | inhibition at 20 ppm [2]: ≥ 80% | pest or weed control at 200 ppm [3]: ≥ 80% | inhibition at 20 ppm [1]: ≥ 80% | inhibition at 20 ppm [4]: ≥ 80% | inhibition at 20 ppm [5]: ≥ 80% | inhibition at 20 ppm [6]: ≥ 80%

melting point: 220 to 224 °C
SMILES: CCn1c(-n2ncnc2N)nc2cncc(Cc3ccccc3)c21 [Compound 25, 2-(7-benzyl-1-ethylimidazo[4,5-c]pyridin-2-yl)-1,2,4-triazol-3-amine]
inhibition at 20 ppm (Gaeumannomyces graminis): ≥ 80% | inhibition at 20 ppm [2]: ≥ 80% | inhibition at 20 ppm [4]: ≥ 80% | inhibition at 20 ppm [5]: ≥ 80% | inhibition at 20 ppm [6]: ≥ 80%

melting point: 234 to 236 °C
SMILES: CCn1c(-n2ncnc2N)nc2cncc(-c3ccc(C)cc3)c21 [Compound 28, 2-[1-ethyl-7-(4-methylphenyl)imidazo[4,5-c]pyridin-2-yl]-1,2,4-triazol-3-amine]
pest or weed control at 200 ppm (Pyrenophora teres): ≥ 80% | inhibition at 20 ppm [2]: ≥ 80% | pest or weed control at 200 ppm [3]: ≥ 80% | inhibition at 20 ppm [1]: ≥ 80% | inhibition at 20 ppm [5]: ≥ 80% | inhibition at 20 ppm [6]: ≥ 80%

melting point: 234 to 236 °C
SMILES: Nc1ncnn1-c1nc2cncc(Br)c2n1CC(F)(F)F [Compound 76, 2-[7-bromo-1-(2,2,2-trifluoroethyl)imidazo[4,5-c]pyridin-2-yl]-1,2,4-triazol-3-amine]
pest or weed control at 200 ppm [7]: ≥ 80% | inhibition at 20 ppm (Gaeumannomyces graminis): ≥ 80% | pest or weed control at 200 ppm (Pyrenophora teres): ≥ 80% | inhibition at 20 ppm [2]: ≥ 80% | inhibition at 20 ppm [1]: ≥ 80% | inhibition at 20 ppm [5]: ≥ 80% | inhibition at 20 ppm [6]: ≥ 80%

melting point: 217 to 218 °C
SMILES: Nc1ncnn1-c1nc2cncc(Br)c2n1C1CCCCC1 [Compound 112, 2-(7-bromo-1-cyclohexylimidazo[4,5-c]pyridin-2-yl)-1,2,4-triazol-3-amine]
inhibition at 20 ppm [1]: ≥ 80%

melting point: 170 to 173 °C
SMILES: CCn1c(-n2ncnc2N)nc2cncc(C(C)=NOC)c21 [Compound 133]
inhibition at 20 ppm (Gaeumannomyces graminis): ≥ 80% | pest or weed control at 200 ppm (Pyrenophora teres): ≥ 80% | inhibition at 20 ppm [2]: ≥ 80% | inhibition at 20 ppm [8]: ≥ 80% | inhibition at 20 ppm [4]: ≥ 80% | inhibition at 20 ppm [5]: ≥ 80% | inhibition at 20 ppm [6]: ≥ 80%

melting point: 171 to 175 °C
SMILES: CCn1c(-n2ncnc2N)nc2cncc(C(C)=NOC(C)(C)C)c21 [Compound 140]
inhibition at 20 ppm (Gaeumannomyces graminis): ≥ 80% | pest or weed control at 200 ppm (Pyrenophora teres): ≥ 80% | inhibition at 20 ppm [2]: ≥ 80% | inhibition at 20 ppm [8]: ≥ 80% | pest or weed control at 200 ppm [3]: ≥ 80% | inhibition at 20 ppm [1]: ≥ 80% | inhibition at 20 ppm [5]: ≥ 80% | inhibition at 20 ppm [6]: ≥ 80%
